Biological target: T1, GoxA (Pseudoalteromonas luteoviolacea, UniProt A0A161XU12)
T1 sequence (A0A161XU12 1-816): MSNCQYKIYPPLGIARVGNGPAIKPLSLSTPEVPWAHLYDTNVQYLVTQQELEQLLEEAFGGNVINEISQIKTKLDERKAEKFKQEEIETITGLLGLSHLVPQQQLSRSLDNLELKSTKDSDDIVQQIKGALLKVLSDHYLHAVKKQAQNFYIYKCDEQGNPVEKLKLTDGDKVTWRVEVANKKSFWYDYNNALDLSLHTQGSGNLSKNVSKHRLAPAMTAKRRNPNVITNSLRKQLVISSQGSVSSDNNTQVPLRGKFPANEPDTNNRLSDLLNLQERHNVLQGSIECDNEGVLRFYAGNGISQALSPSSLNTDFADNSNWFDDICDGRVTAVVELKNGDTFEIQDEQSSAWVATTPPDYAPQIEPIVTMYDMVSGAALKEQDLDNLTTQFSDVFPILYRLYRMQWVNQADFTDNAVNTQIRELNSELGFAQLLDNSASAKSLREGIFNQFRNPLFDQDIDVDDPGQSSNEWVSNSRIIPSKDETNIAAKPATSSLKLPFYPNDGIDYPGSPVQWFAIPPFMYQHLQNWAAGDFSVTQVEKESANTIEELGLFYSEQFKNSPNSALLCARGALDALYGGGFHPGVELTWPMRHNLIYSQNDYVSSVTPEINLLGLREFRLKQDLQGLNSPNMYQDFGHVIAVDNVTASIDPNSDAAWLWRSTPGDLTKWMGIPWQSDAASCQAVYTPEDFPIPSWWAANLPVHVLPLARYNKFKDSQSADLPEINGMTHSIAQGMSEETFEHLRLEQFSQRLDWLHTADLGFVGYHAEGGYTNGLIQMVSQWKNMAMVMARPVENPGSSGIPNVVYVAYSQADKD
Experiment: anaerobic absorbance titration at […] nm, fit to allosteric binding equation

Kd: 103 ± 3 µM
Compound: NCC(=O)O [glycine]

— article PMC6537893 (Biochemistry, 2019)
